Experimental data from paper PMC11267380, “USP25 Elevates SHLD2‐Mediated DNA Double‐Strand Break Repair and Regulates Chemoresponse in Cancer” (Advanced Science, 2024).

Key:
SW480 cells = test: CCK8 survival assay, TRIM25 knockdown SW480 cells; assay type: cell-based; conditions: ctrl vs USP25-depleted SW480, 5-Fu (0, 0.1, 0.5, 1, 3 µM), 72 h
Description: Figure 6 TRIM25 ubiquitinates and inactivates USP25. a) The mRNA expression levels of USP25 in human normal colon tissue samples (n = 41) and colorectal adenocarcinoma tissue samples (n = 286 COAD patients) from the Ualcan database. b) The mRNA expression level of USP25 in human colon cell lines and colon carcinoma cell lines through qPCR. c) The protein expression level of USP25 in human colon cell lines and colon carcinoma cell lines through western blot. d) Tissue microarray with representative IHC images showing USP25 protein expression in COAD tumors and adjacent tissues. […] Cell lysates were subjected to HA resin, and the immunoprecipitants were subsequently blotted using the indicated antibodies. f) The protein expression levels of USP25 were evaluated in HEK293T cells transfected with MYC‐TRIM25 or Flag‐HECTD3. g) The effect of cycloheximide (CHX) treatment on USP25 expression levels was analyzed in HEK293T cells transfected with TRIM25 for an indicated duration of time. h) In vivo ubiquitination assays were performed in control and TRIM25 knockdown cells, transfected with indicated plasmids, and treated with MG132 for 4 h before harvesting. […]
For long‐term proliferation, cells were seeded in triplicate in each well of 96‐well plates at a density of 1000 cells per well. […] The absorbance was measured at 450 nm using the SpectraMax M5 reader (Molecular Devices).

USP25-MDC1 interaction = test: Co-IP of USP25-MDC1 interaction after DNA damage; assay type: cell-based; conditions: 5-Fu (20 uM), HEK293T and RKO
Method: USP25 was immunoprecipitated and immunoblotted with p‐SQ/TQ. d) USP25 knockdowm U2OS cells rescued with USP25WT or USP25T523A were treated with IR (2 Gy), and co‐localization USP25 with γH2AX was detected by immunofluorescence. n>80 in each group. e) HEK293T cells were left untreated or treated with 5‐Fu (20 uM). MDC1 was immunoprecipitated and immunoblotted with USP25. f) HEK293T cells transfected with USP25 were treated with 5‐Fu (20 uM), and cell lysates were incubated with GST or GST‐MDC1 deletions in vitro. […] The interaction USP25 and MDC1‐BRCT was detected. h) Non‐phosphorylated or phosphorylated Thr523 peptide was conjugated to beads and incubated with purified GST‐MDC1‐BRCT domain in buffer.
Flag was immunoprecipitated and immunoblotted with indicated antibodies. c-d) RKO cells were left untreated or treated with 5-Fu (20uM)(c) or IR(10Gy)(d). […] The interaction USP25 and MDC1-BRCT was detected.

[1] = test system: USP25 and MDC1 BRCT-domain / FHA-domain; test: GST pull-down of USP25 with MDC1 deletions after 5-Fu; assay type: cell-based, human; conditions: 5-Fu (20 uM), HEK293T lysates
Method: Figure 4 Regulation of the DDR signaling by USP25. a) HEK293T cells were left untreated or treated with IR (10 Gy) or 5‐Fu (20 uM). USP25 was immunoprecipitated and immunoblotted with phospho‐SQ/TQ (p‐SQ/TQ). b) HEK293T cells were pretreated with Ku55933 (25 µM) for 2 h followed by treatment with IR(10 Gy). After 1 h, USP25 was immunoprecipitated, left untreated, or treated with phosphatase and immunoblotted with p‐SQ/TQ. c) HEK293T cells transfected with USP25^WT and indicated constructs were left treated with IR(10 Gy). USP25 was immunoprecipitated and immunoblotted with p‐SQ/TQ. d) USP25 knockdowm U2OS cells rescued with USP25WT or USP25T523A were treated with IR (2 Gy), and co‐localization USP25 with γH2AX was detected by immunofluorescence. n>80 in each group. e) HEK293T cells were left untreated or treated with 5‐Fu (20 uM). […] The interaction USP25 and MDC1 deletions was detected. g) HEK293T cells transfected with USP25^WT or USP25^T523A were treated with IR, and cell lysates were incubated with GST or GST‐MDC1‐BRCT in vitro. The interaction USP25 and MDC1‐BRCT was detected. h) Non‐phosphorylated or phosphorylated Thr523 peptide was conjugated to beads and incubated with purified GST‐MDC1‐BRCT domain in buffer. […]

O=c1[nH]cc(F)c(=O)[nH]1 [5‐Fu, 5‐fluorouracil]
resistance by TRIM25 knockdown (SW480 cells): resistant to 5‐Fu treatment in ctrl cells but not USP25‐depleted SW480 cells
USP25-MDC1 interaction after treatment (USP25-MDC1 interaction): increased following 5‐Fu or IR treatment
interaction of MDC1 domains with USP25 after treatment [1]: MDC1 BRCT‐domain but not FHA‐domain interacted with USP25
